We go through ten molecules from patent US20240317724A1, “3,4-METHYLENEDIOXYMETHAMPHETAMINE AND RELATED PS[…] USES THEREOF” (Terran Biosciences Inc., priority 2021, published 2024).

Each structure is given as a SMILES string.

Data set [1] in a line: Single intravenous (IV) dose pharmacokinetics study in rats; plasma concentration of MDMA by LC-MS/MS.
A short description of data set [2]: Single oral (PO) dose pharmacokinetics study in rats; plasma concentration of MDMA (and prodrug) by LC-MS/MS. Conditions: for AUC(0-t): po, mean.
Setting [3] is: male, Sprague-Dawley, rat, plasma, iv, 1 mg/kg.
Where [4] appears, read: 0.50 h after oral dosing of prodrug 10 mg/Kg, male SD rats.
The mark [5] stands for this setting: 1.00 h after oral dosing of prodrug 10 mg/Kg, male SD rats.
[6] abbreviates: 2.00 h after oral dosing of prodrug 10 mg/Kg, male SD rats.
Setting [7] is: 4.00 h after oral dosing of prodrug 10 mg/Kg, male SD rats.
The mark [8] stands for this setting: 7.00 h after oral dosing of prodrug 10 mg/Kg, male SD rats.
The mark [9] stands for this setting: 24.0 h after oral dosing of prodrug 10 mg/Kg, male SD rats.

As for `CNC(C)Cc1ccc2c(c1)OCO2` (centres unmarked) [MDMA, 3,4-Methylenedioxymethamphetamine], the Tlast was found to be 2.00 h in data set [1] (MDMA dosed IV 1 mg/Kg, male SD rats, analyte MDMA, median) and 7.00 h in data set [2] (MDMA dosed PO 10 mg/Kg, male SD rats, analyte MDMA, median). Besides, the Vd in data set [1] (setting [3]) is 8.18 L/kg. Moreover, the clearance in data set [1] (setting [3]) was 274 mL/min/kg. The bioavailability in data set [2] (male, Sprague-Dawley, rat, plasma, oral, 10 mg/kg) is 104%. The AUC(0-t) in data set [2] (male, Sprague-Dawley, rat, plasma, 10 mg/kg, AUC0-2, MDMA dosed PO 10 mg/Kg, male SD rats, analyte MDMA) was 638 ng·h/mL; in data set [2] (male, Sprague-Dawley, rat, plasma, 10 mg/kg, AUC0-24, MDMA dosed PO 10 mg/Kg, male SD rats, analyte MDMA) it was 1810 ng·h/mL; in data set [2] (male, Sprague-Dawley, rat, plasma, 10 mg/kg, AUC0-last, MDMA dosed PO 10 mg/Kg, male SD rats, analyte MDMA) it was 1710 ng·h/mL.
As for `CC(Cc1ccc2c(c1)OCO2)N(C)C(=O)OC1COC1` (centres unmarked) [Oxetane-3-yl carbamate prodrug of MDMA, Oxetan-3-yl N-[2-(1,3-benzodioxol-5-yl)-1-methyl-ethyl]-N-methyl-carbamate], the “Mean plasma concentration of metabolite MDMA” value (“Mean plasma concentration” below) in data set [2] (setting [4]), in data set [2] (setting [5]), in data set [2] (setting [6]), in data set [2] (setting [7]), in data set [2] (setting [8]) and in data set [2] (setting [9]) was “BLQ (BLQ: Below Lower Limit of Quantification (0.5 ng/mL))” in each case.
On to `CCCOC(=O)N(C)C(C)Cc1ccc2c(c1)OCO2` (centres unmarked) [Propyl carbamate prodrug of MDMA, propyl N-[2-(1,3-benzodioxol-5-yl)-1-methyl-ethyl]-N-methyl-carbamate], for which the “Mean plasma concentration” value in data set [2] (setting [4]), in data set [2] (setting [5]), in data set [2] (setting [6]), in data set [2] (setting [7]), in data set [2] (setting [8]) and in data set [2] (setting [9]) was “BLQ (BLQ: Below Lower Limit of Quantification (0.5 ng/mL))” each time.
Take `CC(Cc1ccc2c(c1)OCO2)N(C)C(=O)C1CCOCC1` (centres unmarked) [Pyran amide prodrug of MDMA, N-[2-(2H-1,3-Benzodioxol-5-yl)-1-methyl-ethyl]-N-methyl-tetrahydro-2H-pyran-4-carboxamide]: the “Mean plasma concentration” value in data set [2] (setting [4]), in data set [2] (setting [5]), in data set [2] (setting [6]), in data set [2] (setting [7]), in data set [2] (setting [8]) and in data set [2] (setting [9]) was “BLQ (BLQ: Below Lower Limit of Quantification (0.5 ng/mL))” each time.
As for `CC(Cc1ccc2c(c1)OCO2)N(C)C(=O)CN(C)C(=O)[C@@H](N)Cc1ccccc1` (stereo partly drawn) [SarcPhe prodrug of MDMA, (2S)-2-amino-N-[2-[[2-(1,3-benzodioxol-5-yl)-1-methyl-ethyl]-methyl-amino]-2-oxo-ethyl]-N-methyl-3-phenyl-propanamide], the “Mean plasma concentration” value in data set [2] (setting [4]), in data set [2] (setting [5]), in data set [2] (setting [6]), in data set [2] (setting [7]), in data set [2] (setting [8]) and in data set [2] (setting [9]) was “BLQ (BLQ: Below Lower Limit of Quantification (0.5 ng/mL))” throughout.
Regarding `CC(Cc1ccc2c(c1)OCO2)N(C)C(=O)OC1CCOC1` (centres unmarked) [THF carbamate prodrug of MDMA, tetrahydrofuran-3-yl N-[2-(1,3-benzodioxol-5-yl)-1-methyl-ethyl]-N-methyl-carbamate], the “Mean plasma concentration” value in data set [2] (setting [4]), in data set [2] (setting [5]), in data set [2] (setting [6]), in data set [2] (setting [7]), in data set [2] (setting [8]) and in data set [2] (setting [9]) was “BLQ (BLQ: Below Lower Limit of Quantification (0.5 ng/mL))” each time.
Turning to `CC(Cc1ccc2c(c1)OCO2)N(C)C(=O)C(C)(C)C` (centres unmarked) [Tert-butyl amide prodrug of MDMA, N-[2-(2H-1,3-Benzodioxol-5-yl)-1-methyl-ethyl]-N-methyl-2,2-dimethylpropionamide], the “Mean plasma concentration” value in data set [2] (setting [4]), in data set [2] (setting [5]), in data set [2] (setting [6]), in data set [2] (setting [7]), in data set [2] (setting [8]) and in data set [2] (setting [9]) was “BLQ (BLQ: Below Lower Limit of Quantification (0.5 ng/mL))” each time.
As for `CC(Cc1ccc2c(c1)OCO2)N(C)C(=O)OC(C)(C)C` (centres unmarked) [Tert-butyl carbamate prodrug of MDMA, tert-butyl N-[2-(1,3-benzodioxol-5-yl)-1-methyl-ethyl]-N-methyl-carbamate], the “Mean plasma concentration” value in data set [2] (setting [4]), in data set [2] (setting [5]), in data set [2] (setting [6]), in data set [2] (setting [7]), in data set [2] (setting [8]) and in data set [2] (setting [9]) was “BLQ (BLQ: Below Lower Limit of Quantification (0.5 ng/mL))” each time.
As to `CC(C)[C@H](N)C(=O)N(C)C(C)Cc1ccc2c(c1)OCO2` (stereo partly drawn) [Valine prodrug of MDMA, (2S)-2-amino-N-[2-(1,3-benzodioxol-5-yl)-1-methyl-ethyl]-N,3-dimethyl-butanamide], the “Mean plasma concentration” value in data set [2] (setting [4]), in data set [2] (setting [5]), in data set [2] (setting [6]), in data set [2] (setting [7]), in data set [2] (setting [8]) and in data set [2] (setting [9]) was “BLQ (BLQ: Below Lower Limit of Quantification (0.5 ng/mL))” each time.
With `CC(Cc1ccc2c(c1)OCO2)N(C)C(=O)OCC(C)(C)COC(=O)C(C)(C)C` (centres unmarked) [[3-[[2-(1,3-Benzodioxol-5-yl)-1-methyl-ethyl]-methyl-carbamoyl]oxy-2,2-dimethyl-propyl] 2,2-dimethylpropanoate], the “Mean plasma concentration” value in data set [2] (setting [4]), in data set [2] (setting [5]), in data set [2] (setting [6]), in data set [2] (setting [7]), in data set [2] (setting [8]) and in data set [2] (setting [9]) was “BLQ (BLQ: Below Lower Limit of Quantification (0.5 ng/mL))” throughout.
